Data reported in patent publication US20260256821A1, “USE OF GINSENOSIDE IN COMBINATION WITH PD-1 BLOCKER IN PREPARING MEDICAMENT AGAINST HEAD AND NECK SQUAMOUS CELL CARCINOMA” (CHINESE ACADEMY OF MEDICAL SCIENCES INSTITUTE OF MEDICINAL …, priority 2022, published 2026).

Experiments:
Cal-27 cells [1] = assay: Proliferation of tongue squamous cell carcinoma Cal-27 cells (CCK-8); format: cell-based; conditions: 48 h treatment, CCK-8, FIG. 1
Procedure: Cells in good growth state were counted and inoculated into 96-well plates with 100 μL per well according to a certain cell density. After the cells adherence to the wall overnight, a medicament solution was added to intervene the cells. After 48 h of medicament treatment, CCK-8 reagent was added, 10 μL per well. After incubation for 2 h, the culture plates were taken out and detected at 450 nm wavelength of the enzymograph.

Cal-27 cells [2] = assay: Killing effect of lymphocytes on tumor cells in Cal-27/PBMC co-culture (Incucyte); format: cell-based; conditions: compared with PBMC control group, anti-PD-1 antibody 5 μg/mL; for killing effect of lymphocytes on tumor cells: FIG. 5, Rg3 1, 5, 10 μM; for number of Cal-27 cells / killing effect of lymphocytes on tumor cells: FIG. 3, Rh2 1, 5, 10 μM, effect-to-target ratio 5:1
Procedure: Cal-27 cells in good growth state were digested and centrifuged, appropriate amount of cell suspension was taken and placed in a new centrifuge tube, incubated with the target red label reagent for 20 min, washed and centrifuged with serum-free culture solution, then plated, and placed in an incubator for overnight cultivation to make them adhere to the wall. PBMC stimulated by PHA was added into the well plate in ratios of 1:1, 5:1, 10:1 and 20:1, and Incucyte real-time dynamic cell imaging system was used to observe the killing effect of lymphocytes on tumor cells under different target ratio conditions.
Cal-27 cells in good growth statu were digested and centrifuged, incubated with red target labeling reagent for 20 min, and washed with serum-free culture solution. After the cells were adherence to the wall overnight, the PBMC stimulated by PHA was added to the well plate according to the effect-to-target ratio of 5:1 and co-cultured with Cal-27 cells. Ginsenoside Rh2 or ginsenoside Rg3 of medicament solution with different concentrations were prepared, and they and 5 μg/mL human anti-PD-1 antibody were added into the well plate for incubation, and were divided into control group, ginsenoside alone group, anti-PD-1 antibody alone group, ginsenoside and anti-PD-1 antibody combination group. The culture plates were placed into Incucyte real-time dynamic cell imaging analysis system for real-time monitoring.

[3] = test system: tumor-infiltrating lymphocytes; assay: Tumor-infiltrating lymphocyte levels in mice tumor tissue (flow cytometry); format: in vivo; conditions: for number/abundance of T cells infiltrating into tumors: FIGS. 7A and 7D
Procedure: (§1) The mice were randomly divided into four groups: model control group, ginsenoside Rh2 group (15 mg/kg), anti-PD-1 antibody group (200 μg/mice), and ginsenoside Rh2 in combination with anti-PD-1 antibody group. The administration time and volume were as follows: ginsenoside Rh2 was administered intragastrically 5 days before vaccination; anti-PD-1 antibody was administered intraperitoneally on days 3, 6, 9, and 12 after vaccination.
(§2) SCC-7 cells were resuscitated and expanded in large quantities. Trypsin was added to digest and the cells were collected. After counted, the cells were re-suspended in PBS solution and the cell concentration was adjusted, and the mice were inoculated with 5*10^6 cells/0.2 mL in the right armpit.
After the experiment, the mice's eyeballs were removed to collect blood, and the tumor tissue was peeled off. The tumor tissue was divided into two parts, one part was quickly frozen in liquid nitrogen and then transferred to a −80° C. refrigerator for storage, and the other part was stored in PBS solution for flow cytometry detection.
Mice tumor samples were cut into pieces with sterile scissors, ground gently with a syringe stopper, and filtered through a 40 μm filter to prepare a single cell suspension. The cell suspension was transferred to a new centrifuge tube, PBS solution was added, the supernatant was discarded after centrifugation, and the remaining was washed with PBS and centrifuged again. PBS was added to re-suspended, 100 μL of resuspending solution was placed into the flow tube, the corresponding flow cytometry antibody was added for incubating and staining for 20 minutes, and then on-machine detection was performed.

[4] = Rh2 as metabolite relative to ginsenoside Rg3; cited from earlier work
SCC-7 cells = assay: Tumor growth in head and neck squamous cell carcinoma-bearing mice; format: in vivo; conditions: FIG. 6A; alone, versus model control; Rh2 15 mg/kg intragastric; anti-PD-1 antibody 200 μg/mice intraperitoneal
Procedure: SPF grade C57 mice, 6 weeks old, female, were purchased from Beijing Charles River Laboratories Animal Company. […] OF MEDICINAL PLANT DEVELOPMENT. The experimental facilities comply with barrier environmental standards, with a temperature of 20° C. to 26° C., a relative humidity of 40% to 70%, and light and dark alternating for 12 hours each. Mice were raised in standard boxes, with 5 mice per cage. During the raising process, the animals were allowed to eat and move freely.
as §1, §2
Throughout the experiment, the tumor volume of the mice was measured twice weekly.
After the experiment, the mice's eyeballs were removed to collect blood, and the tumor tissue was peeled off. […]

CC(C)=CCC[C@](C)(O[C@@H]1O[C@H](CO)[C@@H](O)[C@H](O)[C@H]1O)[C@H]1CC[C@]2(C)[C@@H]1[C@H](O)C[C@@H]1[C@@]3(C)CC[C@H](O)C(C)(C)[C@@H]3[C@@H](O[C@@H]3O[C@H](CO)[C@@H](O)[C@H](O)[C@H]3O)C[C@]12C [ginsenoside Rg1]
IC50 (Cal-27 cells [1]): ~100 µM | inhibitory effect on Cal-27 cells (Cal-27 cells [1]): concentration-dependent inhibitory effects

CC(C)=CCC[C@](C)(O[C@@H]1O[C@H](CO)[C@@H](O)[C@H](O)[C@H]1O)[C@H]1CC[C@]2(C)[C@@H]1[C@H](O)C[C@@H]1[C@@]3(C)CC[C@H](O)C(C)(C)[C@@H]3CC[C@]12C [ginsenoside CK]
inhibitory effect on Cal-27 cells (Cal-27 cells [1]): most significant inhibitory effect

CC(C)=CCC[C@](C)(O)[C@H]1CC[C@]2(C)[C@@H]1[C@H](O)C[C@@H]1[C@@]3(C)CC[C@H](O[C@@H]4O[C@H](CO)[C@@H](O)[C@H](O)[C@H]4O[C@@H]4O[C@H](CO)[C@@H](O)[C@H](O)[C@H]4O)C(C)(C)[C@@H]3CC[C@]12C [ginsenoside Rg3]
inhibitory effect on Cal-27 cells (Cal-27 cells [1]): most significant inhibitory effect | killing effect of lymphocytes on tumor cells (Cal-27 cells [2]): can promote the killing effect of lymphocytes

CC(C)=CCC[C@](C)(O[C@@H]1O[C@H](CO[C@@H]2O[C@H](CO)[C@@H](O)[C@H](O)[C@H]2O)[C@@H](O)[C@H](O)[C@H]1O)[C@H]1CC[C@]2(C)[C@@H]1[C@H](O)C[C@@H]1[C@@]3(C)CC[C@H](O[C@@H]4O[C@H](CO)[C@@H](O)[C@H](O)[C@H]4O[C@@H]4O[C@H](CO)[C@@H](O)[C@H](O)[C@H]4O)C(C)(C)[C@@H]3CC[C@]12C [ginsenoside Rb1]
IC50 (Cal-27 cells [1]): ~100 µM | inhibitory effect on Cal-27 cells (Cal-27 cells [1]): concentration-dependent inhibitory effects

CC(C)=CCC[C@](C)(O)[C@H]1CC[C@]2(C)[C@@H]1[C@H](O)C[C@@H]1[C@@]3(C)CC[C@H](O[C@@H]4O[C@H](CO)[C@@H](O)[C@H](O)[C@H]4O)C(C)(C)[C@@H]3CC[C@]12C [ginsenoside Rh2]
number/abundance of T cells infiltrating into tumors [3]: neither ginsenoside Rh2 nor anti-PD-1 antibody had a significant effect | proportion of B cell activation ([3]; FIGS. 7C and 7F, P<0.05): significantly increase the proportion of B cell activation | content increased [4]: 50 times | oral bioavailability increased [4]: 5 times | inhibitory effect on Cal-27 cells (Cal-27 cells [1]): most significant inhibitory effect | number of Cal-27 cells / killing effect of lymphocytes on tumor cells (Cal-27 cells [2]): can reduce the number of Cal-27 cells | tumor volume (SCC-7 cells): significantly reduce the tumor size

CC(C)=CCC[C@](C)(O)[C@H]1CC[C@]2(C)[C@@H]1[C@H](O)C[C@@H]1[C@@]3(C)CC[C@H](O)C(C)(C)[C@@H]3[C@@H](O[C@@H]3O[C@H](CO)[C@@H](O)[C@H](O)[C@H]3O)C[C@]12C [ginsenoside Rh1]
IC50 (Cal-27 cells [1]): ~100 µM | inhibitory effect on Cal-27 cells (Cal-27 cells [1]): concentration-dependent inhibitory effects

CC(C)=CCC[C@](C)(O[C@@H]1O[C@H](CO[C@@H]2O[C@@H](CO)[C@H](O)[C@H]2O)[C@@H](O)[C@H](O)[C@H]1O)[C@H]1CC[C@]2(C)[C@@H]1[C@H](O)C[C@@H]1[C@@]3(C)CC[C@H](O[C@@H]4O[C@H](CO)[C@@H](O)[C@H](O)[C@H]4O[C@@H]4O[C@H](CO)[C@@H](O)[C@H](O)[C@H]4O)C(C)(C)[C@@H]3CC[C@]12C [ginsenoside Rc]
inhibitory effect on Cal-27 cells (Cal-27 cells [1]): concentration-dependent inhibitory effects | IC50 (Cal-27 cells [1]; Homo sapiens, CAL-27): ~100 µM

pembrolizumab [anti-PD-1 antibody]
number/abundance of T cells infiltrating into tumors [3]: neither ginsenoside Rh2 nor anti-PD-1 antibody had a significant effect | infiltration level of CD8+ T cells in tumors ([3]; FIGS. 7B and 7E, P<0.05): increased significantly | number of Cal-27 cells / killing effect of lymphocytes on tumor cells (Cal-27 cells [2]): can also significantly promote the killing effect of lymphocytes | killing effect of lymphocytes on tumor cells (Cal-27 cells [2]): can significantly promote the killing effect of lymphocytes | tumor volume (SCC-7 cells): decreased slightly

CC(C)=CCC[C@](C)(O[C@@H]1O[C@H](CO)[C@@H](O)[C@H](O)[C@H]1O)[C@H]1CC[C@]2(C)[C@@H]1[C@H](O)C[C@@H]1[C@@]3(C)CC[C@H](O)C(C)(C)[C@@H]3[C@@H](O[C@@H]3O[C@H](CO)[C@@H](O)[C@H](O)[C@H]3O[C@@H]3O[C@@H](C)[C@H](O)[C@@H](O)[C@H]3O)C[C@]12C [ginsenoside Re]
inhibitory effect on Cal-27 cells (Cal-27 cells [1]): concentration-dependent inhibitory effects | IC50 (Cal-27 cells [1]; Homo sapiens, CAL-27): ~100 µM

CC(C)=CCC[C@](C)(O[C@@H]1O[C@H](CO[C@@H]2OC[C@@H](O)[C@H](O)[C@H]2O)[C@@H](O)[C@H](O)[C@H]1O)[C@H]1CC[C@]2(C)[C@@H]1[C@H](O)C[C@@H]1[C@@]3(C)CC[C@H](O[C@@H]4O[C@H](CO)[C@@H](O)[C@H](O)[C@H]4O[C@@H]4O[C@H](CO)[C@@H](O)[C@H](O)[C@H]4O)C(C)(C)[C@@H]3CC[C@]12C [ginsenoside Rb3]
IC50 (Cal-27 cells [1]): ~100 µM | inhibitory effect on Cal-27 cells (Cal-27 cells [1]): concentration-dependent inhibitory effects
